Data published in PubChem BioAssay AID1963858 (Molecular Pharmacology Branch, DTP, NCI, 2024).

Tested on: HOP-62 multicell spheroids with HUVEC/MSC, viability
Experiment: Anticancer human tumor HOP-62 cell line growth inhibition [KRAS2];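 note: viability read after a week of compound exposure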;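 for viability, T/C: 100% = DMSO vehicle-treated spheroids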
Conditions: for viability, T/C: stronger effect = lower value
Method in brief: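 Combination screen of spheroid viability in tumor-cell co-cultures with endothelial (HUVEC) and mesenchymal stem cell stroma. Each agent was tested in half-log dilutions, topping at clinical Cmax or at 10 microM without a known Cmax.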

[1] = curve of first compound, second compound 0.1 µM
[2] = curve of first compound, second compound 0.316 µM
[3] = curve of first compound, second compound 1 µM
[4] = curve of first compound, second compound 3.16 µM
[5] = curve of first compound, second compound 10 µM
[6] = second compound 0.1 µM, first compound 0.000316 µM
[7] = second compound 0.1 µM, first compound 0.001 µM
[8] = second compound 0.1 µM, first compound 0.00316 µM
[9] = second compound 0.1 µM, first compound 0.01 µM
[10] = second compound 0.1 µM, first compound 0.0316 µM
[11] = second compound 0.1 µM, first compound 0.1 µM
[12] = second compound 0.316 µM, first compound 0.000316 µM
[13] = second compound 0.316 µM, first compound 0.001 µM
[14] = second compound 0.316 µM, first compound 0.00316 µM
[15] = second compound 0.316 µM, first compound 0.01 µM
[16] = second compound 0.316 µM, first compound 0.0316 µM
[17] = second compound 0.316 µM, first compound 0.1 µM
[18] = second compound 1 µM, first compound 0.000316 µM
[19] = second compound 1 µM, first compound 0.001 µM
[20] = second compound 1 µM, first compound 0.00316 µM
[21] = second compound 1 µM, first compound 0.01 µM
[22] = second compound 1 µM, first compound 0.0316 µM
[23] = second compound 1 µM, first compound 0.1 µM
[24] = second compound 3.16 µM, first compound 0.000316 µM
[25] = second compound 3.16 µM, first compound 0.001 µM
[26] = second compound 3.16 µM, first compound 0.00316 µM
[27] = second compound 3.16 µM, first compound 0.01 µM
[28] = second compound 3.16 µM, first compound 0.0316 µM
[29] = second compound 3.16 µM, first compound 0.1 µM
[30] = second compound 10 µM, first compound 0.000316 µM
[31] = second compound 10 µM, first compound 0.001 µM
[32] = second compound 10 µM, first compound 0.00316 µM
[33] = second compound 10 µM, first compound 0.01 µM
[34] = second compound 10 µM, first compound 0.0316 µM
[35] = second compound 10 µM, first compound 0.1 µM
[36] = second compound 0.1 µM, first compound 0.316 µM
[37] = second compound 0.1 µM, first compound 1 µM
[38] = second compound 0.1 µM, first compound 3.16 µM
[39] = second compound 0.316 µM, first compound 0.316 µM
[40] = second compound 0.316 µM, first compound 1 µM
[41] = second compound 0.316 µM, first compound 3.16 µM
[42] = second compound 1 µM, first compound 0.316 µM
[43] = second compound 1 µM, first compound 1 µM
[44] = second compound 1 µM, first compound 3.16 µM
[45] = second compound 3.16 µM, first compound 0.316 µM
[46] = second compound 3.16 µM, first compound 1 µM
[47] = second compound 3.16 µM, first compound 3.16 µM
[48] = second compound 10 µM, first compound 0.316 µM
[49] = second compound 10 µM, first compound 1 µM
[50] = second compound 10 µM, first compound 3.16 µM

CN(C)C/C=C/C(=O)Nc1cc2c(Nc3ccc(F)c(Cl)c3)ncnc2cc1O[C@H]1CCOC1 + C=CC(=O)N1CCN(c2nc(=O)n(-c3c(C)ccnc3C(C)C)c3nc(-c4c(O)cccc4F)c(F)cc23)C(C)C1
IC50 [1]: > 100 nM | IC50 [2]: > 100 nM | IC50 [3]: > 100 nM | IC50 [4]: > 100 nM | IC50 [5]: 19.2 nM | viability, T/C [6]: 65.1% | viability, T/C [7]: 69.1% | viability, T/C [8]: 67.8% | viability, T/C [9]: 58.9% | viability, T/C [10]: 54.4% | viability, T/C [11]: 65.7% | viability, T/C [12]: 79.5% | viability, T/C [13]: 69.9% | viability, T/C [14]: 66% | viability, T/C [15]: 65% | viability, T/C [16]: 51.1% | viability, T/C [17]: 58% | viability, T/C [18]: 81.1% | viability, T/C [19]: 80.5% | viability, T/C [20]: 61.9% | viability, T/C [21]: 69.8% | viability, T/C [22]: 61.1% | viability, T/C [23]: 62.4% | viability, T/C [24]: 71.5% | viability, T/C [25]: 65.1% | viability, T/C [26]: 70.9% | viability, T/C [27]: 71.8% | viability, T/C [28]: 63.4% | viability, T/C [29]: 54% | viability, T/C [30]: 56.9% | viability, T/C [31]: 51.1% | viability, T/C [32]: 54.5% | viability, T/C [33]: 52% | viability, T/C [34]: 48.6% | viability, T/C [35]: 42.3%

CC1(C)CCC(CN2CCN(c3ccc(C(=O)NS(=O)(=O)c4ccc(NCC5CCOCC5)c([N+](=O)[O-])c4)c(Oc4cnc5[nH]ccc5c4)c3)CC2)=C(c2ccc(Cl)cc2)C1 + COc1cc2nc(C)nc(NC(C)c3cc(N)cc(C(F)(F)F)c3)c2cc1OC1CCOC1
IC50 [1]: 4240 nM | IC50 [2]: 4580 nM | IC50 [3]: 3430 nM | IC50 [4]: 1660 nM | IC50 [5]: 370 nM | viability, T/C [10]: 84.1% | viability, T/C [11]: 92.3% | viability, T/C [36]: 79.6% | viability, T/C [37]: 82.6% | viability, T/C [38]: 58% | viability, T/C (second compound 0.1 µM, first compound 10 µM): 26% | viability, T/C [16]: 87.5% | viability, T/C [17]: 88.7% | viability, T/C [39]: 78.2% | viability, T/C [40]: 75.3% | viability, T/C [41]: 65% | viability, T/C (second compound 0.316 µM, first compound 10 µM): 23.2% | viability, T/C [22]: 85.1% | viability, T/C [23]: 88% | viability, T/C [42]: 78.9% | viability, T/C [43]: 64.6% | viability, T/C [44]: 57.8% | viability, T/C (second compound 1 µM, first compound 10 µM): 14.5% | viability, T/C [28]: 78% | viability, T/C [29]: 75.6% | viability, T/C [45]: 62.8% | viability, T/C [46]: 62.2% | viability, T/C [47]: 38.5% | viability, T/C (second compound 3.16 µM, first compound 10 µM): 26% | viability, T/C [34]: 55.6% | viability, T/C [35]: 56% | viability, T/C [48]: 52.8% | viability, T/C [49]: 39.5% | viability, T/C [50]: 24% | viability, T/C (second compound 10 µM, first compound 10 µM): 7.27%

CC(=O)Nc1cccc(-n2c(=O)n(C3CC3)c(=O)c3c(Nc4ccc(I)cc4F)n(C)c(=O)c(C)c32)c1 + C=CC(=O)N1CCN(c2nc(=O)n(-c3c(C)ccnc3C(C)C)c3nc(-c4c(O)cccc4F)c(F)cc23)C(C)C1
IC50 [1]: 0.78 nM | IC50 [2]: 0.879 nM | IC50 [3]: 0.915 nM | IC50 [4]: 0.561 nM | IC50 [5]: 0.124 nM | viability, T/C (second compound 0.1 µM, first compound 0.0001 µM): 78.5% | viability, T/C [6]: 61.2% | viability, T/C [7]: 49.1% | viability, T/C [8]: 29.7% | viability, T/C [9]: 18.9% | viability, T/C [10]: 14.7% | viability, T/C (second compound 0.316 µM, first compound 0.0001 µM): 61.6% | viability, T/C [12]: 72.7% | viability, T/C [13]: 43.8% | viability, T/C [14]: 30.2% | viability, T/C [15]: 19.2% | viability, T/C [16]: 16.8% | viability, T/C (second compound 1 µM, first compound 0.0001 µM): 73.8% | viability, T/C [18]: 61.7% | viability, T/C [19]: 51% | viability, T/C [20]: 32% | viability, T/C [21]: 22.6% | viability, T/C [22]: 18.5% | viability, T/C (second compound 3.16 µM, first compound 0.0001 µM): 77.2% | viability, T/C [24]: 50.6% | viability, T/C [25]: 44.5% | viability, T/C [26]: 39.4% | viability, T/C [27]: 26.2% | viability, T/C [28]: 22.1% | viability, T/C (second compound 10 µM, first compound 0.0001 µM): 53.8% | viability, T/C [30]: 39% | viability, T/C [31]: 43% | viability, T/C [32]: 34.8% | viability, T/C [33]: 26.8% | viability, T/C [34]: 22.8%

CC(=O)Nc1cccc(-n2c(=O)n(C3CC3)c(=O)c3c(Nc4ccc(I)cc4F)n(C)c(=O)c(C)c32)c1
viability, T/C (compound 0.0001 µM): 107% [middle of 5 runs] | viability, T/C (compound 0.000316 µM): 107% [middle of 5 runs] | viability, T/C (compound 0.001 µM): 87.9% [middle of 5 runs] | viability, T/C (compound 0.00316 µM): 61.7% [middle of 5 runs] | viability, T/C (compound 0.01 µM): 31% [middle of 5 runs] | viability, T/C (compound 0.0316 µM): 31.2% [middle of 5 runs] | IC50 (curve of compound): 4.9 nM [middle of 5 runs]

CC1COCCN1c1cc(-c2ccnn2C)c2ccnc(-c3ccn[nH]3)c2n1 (configuration not stated) + CNCc1ccccc1-c1csc(C(C)Nc2nc(C)nc3cc(OC)c(OC)cc23)c1
IC50 [1]: 54.9 nM | IC50 [2]: 61.1 nM | IC50 [3]: 36.9 nM | IC50 [4]: < 10 nM | IC50 [5]: < 10 nM | viability, T/C [9]: 106% | viability, T/C [10]: 73.1% | viability, T/C [11]: 25.3% | viability, T/C [36]: 13.5% | viability, T/C [37]: 14% | viability, T/C [38]: 16.4% | viability, T/C [15]: 106% | viability, T/C [16]: 78.8% | viability, T/C [17]: 28.7% | viability, T/C [39]: 14.2% | viability, T/C [40]: 15.2% | viability, T/C [41]: 14.3% | viability, T/C [21]: 94.9% | viability, T/C [22]: 53.9% | viability, T/C [23]: 25.2% | viability, T/C [42]: 17.4% | viability, T/C [43]: 14.7% | viability, T/C [44]: 12.8% | viability, T/C [27]: 3.68% | viability, T/C [28]: 0.24% | viability, T/C [29]: 2.16% | viability, T/C [45]: 0.06% | viability, T/C [46]: 0.06% | viability, T/C [47]: 0.27% | viability, T/C [33]: 0.1% | viability, T/C [34]: 0.64% | viability, T/C [35]: 0.08% | viability, T/C [48]: 0.09% | viability, T/C [49]: 0.58% | viability, T/C [50]: 0.16%

CCN1CCN(Cc2ccc(Nc3ncc(F)c(-c4cc(F)c5nc(C)n(C(C)C)c5c4)n3)nc2)CC1 + C=CC(=O)N1CCN(c2nc(=O)n(-c3c(C)ccnc3C(C)C)c3nc(-c4c(O)cccc4F)c(F)cc23)C(C)C1
IC50 [1]: 150 nM | IC50 [2]: 39.5 nM | IC50 [3]: 501 nM | IC50 [4]: 543 nM | IC50 [5]: < 3.16 nM | viability, T/C [8]: 58% | viability, T/C [9]: 53.3% | viability, T/C [10]: 49.4% | viability, T/C [11]: 50.5% | viability, T/C [36]: 51.3% | viability, T/C [37]: 40.5% | viability, T/C [14]: 72.5% | viability, T/C [15]: 69.4% | viability, T/C [16]: 50.6% | viability, T/C [17]: 48% | viability, T/C [39]: 49.8% | viability, T/C [40]: 44.3% | viability, T/C [20]: 64.9% | viability, T/C [21]: 59.2% | viability, T/C [22]: 51.7% | viability, T/C [23]: 60% | viability, T/C [42]: 57.1% | viability, T/C [43]: 39.3% | viability, T/C [26]: 70.4% | viability, T/C [27]: 63.6% | viability, T/C [28]: 57.4% | viability, T/C [29]: 53.5% | viability, T/C [45]: 63.4% | viability, T/C [46]: 36.9% | viability, T/C [32]: 51.9% | viability, T/C [33]: 41.6% | viability, T/C [34]: 42.1% | viability, T/C [35]: 39.6% | viability, T/C [48]: 38.2% | viability, T/C [49]: 22.7%
